Data on 23 compounds can be found in ChEMBL document CHEMBL3407376, “Identification of novel class of falcipain-2 inhibitors as potential antimalarial agents” (Bioorg Med Chem, 2015).

Data set [1] has as its system Plasmodium falciparum. In words: Antimalarial activity against asexual stage Plasmodium falciparum assessed as growth arrest at trophozoite stage after 32 to 60 hrs relative to control. Type of data set: functional, organism-based.
Data set [2] concerns Plasmodium falciparum. Put plainly: Selectivity ratio of EC50 for Plasmodium falciparum 3D7 to EC50 for Plasmodium falciparum Dd2. Type of data set: functional.
Data set [3] concerns Plasmodium falciparum. In words: Antimalarial activity against asexual stage Plasmodium falciparum assessed as abnormal parasites after 60 hrs relative to control. Type of data set: functional, organism-based.
Data set [4] concerns Plasmodium falciparum. In words: Antimalarial activity against Plasmodium falciparum Dd2 infected in human erythrocytes after 48 hrs by SYBR green assay. Type of data set: functional. The following applies: Dd2, 48 h.
Data set [5] concerns Plasmodium falciparum. In words: Antimalarial activity against asexual stage Plasmodium falciparum assessed as morphological abnormalities after 32 to 46 hrs relative to control. Type of data set: functional, organism-based.
The subject of data set [6] is Plasmodium falciparum. Put plainly: Antimalarial activity against asexual stage Plasmodium falciparum assessed as abnormal food vacuole after 32 to 46 hrs relative to control. The data set is classed as functional, organism-based.
The test system of data set [7] is Plasmodium falciparum. Put plainly: Antimalarial activity against Plasmodium falciparum isolate MCamp infected in human erythrocytes after 48 hrs by SYBR green assay. Type of data set: functional, organism-based.
A further data set has as its target T1, Falcipain 2 (Plasmodium falciparum, UniProt Q9N6S8).
T1 sequence (Q9N6S8 whole entry): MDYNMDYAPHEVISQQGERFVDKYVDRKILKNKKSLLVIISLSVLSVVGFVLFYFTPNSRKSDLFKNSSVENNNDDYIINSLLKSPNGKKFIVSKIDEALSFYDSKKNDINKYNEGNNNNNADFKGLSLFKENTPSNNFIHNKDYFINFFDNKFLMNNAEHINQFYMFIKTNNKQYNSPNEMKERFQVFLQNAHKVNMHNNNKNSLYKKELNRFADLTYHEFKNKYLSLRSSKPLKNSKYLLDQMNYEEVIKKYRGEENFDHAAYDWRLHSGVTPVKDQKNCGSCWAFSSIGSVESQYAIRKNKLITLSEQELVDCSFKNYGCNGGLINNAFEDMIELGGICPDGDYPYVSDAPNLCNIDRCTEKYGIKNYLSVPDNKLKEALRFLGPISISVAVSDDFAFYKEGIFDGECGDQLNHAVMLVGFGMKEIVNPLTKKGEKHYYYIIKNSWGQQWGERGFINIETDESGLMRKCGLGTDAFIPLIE
In words: Inhibition of Plasmodium falciparum recombinant falcipain-2 using ZFR-AMC as substrate after 30 mins by fluorometric assay.

Data set [8] relates to Plasmodium falciparum. In words: Antimalarial activity against Plasmodium falciparum 3D7 infected in human erythrocytes after 48 hrs by SYBR green assay. Type of data set: functional, organism-based.
A further data set concerns CHO. In words: Cytotoxicity against CHO cells after 24 hrs by WST-1 assay. The following applies: Cricetulus griseus. Type of data set: cell-based.
Data set [9] can be described thus: Selectivity ratio of IC50 for CHO cells to IC50 for Plasmodium falciparum. The following applies: hamster, read-out: Ratio IC50. The data set is classed as ADME, cell-based.
Data set [10] has as its system Plasmodium falciparum. In words: Selectivity ratio of EC50 for Plasmodium falciparum isolate MCamp to EC50 for Plasmodium falciparum 3D7. Type of data set: functional.
Data set [11] concerns Plasmodium falciparum. Put plainly: Selectivity ratio of EC50 for Plasmodium falciparum Dd2 to EC50 for Plasmodium falciparum 3D7. Type of data set: functional.
[12] abbreviates: Plasmodium falciparum, 3D7, 48 h, read-out: IC50.

Calls of active or inactive are those of the source. The rule behind the calls is not given here.

Turning to `CC(C)C[C@H](NC(=O)[C@H](CC(C)C)NC(=O)N1CCCCC1)C(=O)N[C@@H](Cc1c[nH]c2ccccc12)C(=O)N1CCN=C1COc1ccc(F)cc1`, the result in the data set with Plasmodium falciparum [1], in the data set on Plasmodium falciparum [3], with Plasmodium falciparum [5] and with Plasmodium falciparum [6] was Active. Further, the “Ratio EC50” value in the data set with Plasmodium falciparum [2] came to 3. For the same compound, the EC50 in the data set with Plasmodium falciparum [4] was 1.7 µM; in the data set with Plasmodium falciparum [7] it was 6.6 µM. On Falcipain 2, the Ki was found to be 0.2 µM. Further, the IC50 with Plasmodium falciparum [8] (setting [12]) was 5.5 µM; with CHO, more than 468 µM.

Turning to `CC(C)C[C@H](NC(=O)[C@H](CC(C)C)NC(=O)N1CCOCC1)C(=O)N[C@H](C(=O)N1CCN=C1COc1ccc(F)cc1)c1ccccc1`, on Falcipain 2, the inhibition constant Ki stood at 7 µM. In addition, the concentration for half-maximal inhibition (IC50) in the data set on Plasmodium falciparum [8] (setting [12]) is more than 5 µM.

For the compound `CC(C)C[C@H](NC(=O)[C@H](CC(C)C)NC(=O)N1CCOCC1)C(=O)N[C@@H](Cc1ccccc1)C(=O)N1CCC[C@H]1COc1ccc(F)cc1`, the Ki at Falcipain 2 was 0.3 µM. Moreover, the IC50 in the data set with Plasmodium falciparum [8] (setting [12]) stood at 10.2 µM; in the data set with CHO, 53 µM.

With `CC(C)C[C@H](NC(=O)[C@H](CC(C)C)NC(=O)N1CCCCC1)C(=O)N[C@@H](Cc1ccccc1)C(=O)NNc1ccccc1`, the inhibition constant Ki at Falcipain 2 is 0.8 µM. The IC50 with Plasmodium falciparum [8] (setting [12]) stood at 14.2 µM; with CHO it was 99 µM.

With `CC(C)C[C@H](NC(=O)CN1CCN(C)CC1)C(=O)N[C@@H](CC(C)C)C(=O)N[C@H](C(=O)N1CCC[C@H]1COc1ccc(F)cc1)c1ccccc1`, at Falcipain 2, the Ki is more than 10 µM. In addition, the IC50 result in the data set with Plasmodium falciparum [8] is on record as “Not Active”.

As for `COC(=O)C1CCN(CC(=O)N[C@@H](CC(C)C)C(=O)N[C@@H](CC(C)C)C(=O)N[C@@H](Cc2c[nH]c3ccccc23)C(=O)N2CCC[C@H]2COc2ccc(F)cc2)CC1`, on Falcipain 2, the Ki turned out to be 4.6 µM. The IC50 in the data set with Plasmodium falciparum [8] (setting [12]) was 6.7 µM; in the data set on CHO, more than 500 µM.

Consider `CC(C)C[C@H](NC(=O)[C@H](CC(C)C)NC(=O)N1CCCCC1)C(=O)N[C@H](C(=O)N1CCC[C@H]1COc1ccc(F)cc1)c1ccccc1`, for which, on Falcipain 2, the Ki came to 1.3 µM. The IC50 entry in the data set with Plasmodium falciparum [8] is on record as “Not Active”.

Consider `CC(C)C[C@H](NC(=O)CN1CCN(C)CC1)C(=O)N[C@@H](CC(C)C)C(=O)N[C@@H](Cc1c[nH]c2ccccc12)C(=O)N1CCN=C1COc1ccc(F)cc1`, for which, on Falcipain 2, the Ki came out at 10.6 µM. In addition, in the data set with Plasmodium falciparum [8] (setting [12]), the IC50 amounted to 17.5 µM.

Turning to `CC(C)C[C@H](NC(=O)CN1CCC(O)CC1)C(=O)N[C@@H](CC(C)C)C(=O)N[C@@H](Cc1c[nH]c2ccccc12)C(=O)N1CCC[C@H]1COc1ccc(F)cc1`, the Ki at Falcipain 2 was 2.53 µM. Also, the IC50 in the data set on Plasmodium falciparum [8] (setting [12]) is 16.7 µM.

On to `CC(C)C[C@H](NC(=O)[C@H](CC(C)C)NC(=O)N1CCOCC1)C(=O)N[C@@H](Cc1c[nH]c2ccccc12)C(=O)N1CCN=C1COc1ccc(F)cc1`, for which the Ki on Falcipain 2 came out at 1.8 µM. The IC50 with Plasmodium falciparum [8] (setting [12]) was more than 5 µM.

As for `COC(=O)C1CCN(CC(=O)N[C@@H](CC(C)C)C(=O)N[C@@H](CC(C)C)C(=O)N[C@H](C(=O)N2CCC[C@H]2COc2ccc(F)cc2)c2ccccc2)CC1`, the Ki at Falcipain 2 was more than 100 µM. Besides, the IC50 result with Plasmodium falciparum [8] is recorded as “Not Active”.

Take `CC(C)C[C@H](NC(=O)CN1CCN(C)CC1)C(=O)N[C@@H](CC(C)C)C(=O)N[C@@H](Cc1c[nH]c2ccccc12)C(=O)N1CCC[C@H]1COc1ccc(F)cc1`: on Falcipain 2, the Ki was 7.49 µM. The IC50 entry in the data set on Plasmodium falciparum [8] is given as “Not Active”.

Consider `CC(C)C[C@H](NC(=O)[C@H](CC(C)C)NC(=O)N1CCCCC1)C(=O)N[C@@H](Cc1c[nH]c2ccccc12)C(=O)N1CCC[C@H]1COc1ccc(F)cc1`, for which, at Falcipain 2, the inhibition constant (Ki) turned out to be 0.4 µM. Moreover, the IC50 in the data set with Plasmodium falciparum [8] (setting [12]) is 9.7 µM.

With `CC(C)C[C@H](NC(=O)CN1CCC(CCO)CC1)C(=O)N[C@@H](CC(C)C)C(=O)N[C@@H](Cc1c[nH]c2ccccc12)C(=O)N1CCN=C1COc1ccc(F)cc1`, the Ki at Falcipain 2 came out at 6.2 µM. In addition, the IC50 in the data set with Plasmodium falciparum [8] (setting [12]) came to 18.8 µM.

As for `CC(C)C[C@H](NC(=O)N1CCOCC1)c1nc(C(=O)N[C@@H](Cc2ccccc2)C(=O)N2CCC[C@H]2COc2ccc(F)cc2)co1`, on Falcipain 2, the Ki was 8.6 µM. Moreover, in the data set with Plasmodium falciparum [8], the IC50 result is given as “Not Active”.

With `COc1ccc(OC[C@@H]2CCCN2C(=O)[C@H](Cc2ccccc2)NC(=O)[C@H](CC(C)C)NC(=O)[C@H](CC(C)C)NC(=O)N2CCCCC2)cc1`, the Ki at Falcipain 2 was determined as 0.3 µM. In addition, the IC50 in the data set with Plasmodium falciparum [8] (setting [12]) is 35.7 µM; in the data set with CHO, 40 µM.

In the case of `CC(C)C[C@H](NC(=O)[C@H](CC(C)C)NC(=O)N1CCOCC1)C(=O)N[C@H](C(=O)N1CCC[C@H]1COc1ccc(F)cc1)c1ccccc1`, the result in the data set with Plasmodium falciparum [1] and with Plasmodium falciparum [3] was Active. In addition, the selectivity ratio in [9] is 150. Also, the EC50 in the data set on Plasmodium falciparum [4] came to 7.5 µM; with Plasmodium falciparum [7], 12.1 µM. The “Ratio EC50” value with Plasmodium falciparum [10] and in the data set with Plasmodium falciparum [11] was 8 each time. Further, at Falcipain 2, the Ki turned out to be 1.1 µM. The IC50 worked out at 0.9 µM in the data set with Plasmodium falciparum [8] (setting [12]) and 168 µM in the data set with CHO.

On to `CC(C)C[C@H](NC(=O)CN1CCC(CCO)CC1)C(=O)N[C@@H](CC(C)C)C(=O)N[C@H](C(=O)N1CCC[C@H]1COc1ccc(F)cc1)c1ccccc1`, for which, on Falcipain 2, the Ki was more than 10 µM. Besides, the IC50 entry in the data set with Plasmodium falciparum [8] is “Not Active”.

For `CC(C)C[C@H](NC(=O)[C@H](CC(C)C)NC(=O)N1CCOCC1)C(=O)N[C@@H](Cc1c[nH]c2ccccc12)C(=O)N1CCC[C@H]1COc1ccc(F)cc1`, the Ki at Falcipain 2 was 0.4 µM. The IC50 in the data set on Plasmodium falciparum [8] (setting [12]) was found to be 10 µM.

On to `CC(C)C[C@H](NC(=O)CN1CCC(CCO)CC1)C(=O)N[C@@H](CC(C)C)C(=O)N[C@@H](Cc1c[nH]c2ccccc12)C(=O)N1CCC[C@H]1COc1ccc(F)cc1`, for which the Ki at Falcipain 2 was 3.29 µM. Further, the IC50 in the data set on Plasmodium falciparum [8] (setting [12]) is 6.7 µM.

Turning to `CC(C)C[C@H](NC(=O)[C@H](CC(C)C)NC(=O)N1CCCCC1)C(=O)N[C@H](C(=O)N1CCN=C1COc1ccc(F)cc1)c1ccccc1`, the result in the data set with Plasmodium falciparum [1] and with Plasmodium falciparum [3] was Active. In addition, the “Ratio EC50” value with Plasmodium falciparum [2] is given as 3. For the same compound, the EC50 in the data set on Plasmodium falciparum [4] was found to be 1.9 µM; with Plasmodium falciparum [7], 1.2 µM. Moreover, the Ki at Falcipain 2 was 0.8 µM. Moreover, in the data set on Plasmodium falciparum [8] (setting [12]), the IC50 is 5.2 µM.

With `CC(C)C[C@H](NC(=O)c1ccco1)C(=O)N[C@@H](CC(C)C)C(=O)N[C@@H](Cc1ccccc1)C(=O)NNc1ccccc1`, the Ki on Falcipain 2 was 0.6 µM. Further, the IC50 worked out at 27.9 µM in the data set on Plasmodium falciparum [8] (setting [12]) and 114 µM with CHO.

With `CC(C)C[C@H](NC(=O)CN1CCC(O)CC1)C(=O)N[C@@H](CC(C)C)C(=O)N[C@@H](Cc1c[nH]c2ccccc12)C(=O)N1CCN=C1COc1ccc(F)cc1`, the Ki at Falcipain 2 worked out at 13.6 µM. Moreover, in the data set with Plasmodium falciparum [8] (setting [12]), the IC50 turned out to be 10 µM.
